In ChEMBL document CHEMBL1201862, “PubChem BioAssay data set” (2004):
Counter-ions that a name gives are not always drawn.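 1) Cells in 96-well plates. 2) Compound, 48 h, 5 concentrations. 3) Linear interpolation between surrounding doses. 4) Unreached endpoint = highest concentration. The concentration for 50% growth inhibition is given as GI50.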 Active and inactive are the calls of the source. No stated cut-off is given here; in the data, active = GI50 up to about 1.1 µM and inactive = higher.

Tests used:
Experiment in all cases: NCI-60 cell line screen, 48 h
A498 = tested on: A498
CCRF-CEM = tested on: CCRF-CEM
COLO 205 = tested on: COLO 205
DU-145 = tested on: DU-145
HOP-62 = tested on: HOP-62
IGROV-1 = tested on: IGROV-1
K562 = tested on: K562
KM12 = tested on: KM12
LOX IMVI = tested on: LOX IMVI
Malme-3M = tested on: Malme-3M
NCI-H226 = tested on: NCI-H226
OVCAR-4 = tested on: OVCAR-4
OVCAR-5 = tested on: OVCAR-5
OVCAR-8 = tested on: OVCAR-8
SF-295 = tested on: SF-295
SK-MEL-2 = tested on: SK-MEL-2
TK-10 = tested on: TK-10
U-251 = tested on: U-251
UACC-257 = tested on: UACC-257
KM-20L2 = tested on: KM-20L2

Row | Structure (SMILES) | GI50 (A498) | GI50 (CCRF-CEM) | GI50 (COLO 205) | GI50 (DU-145) | GI50 (HOP-62) | GI50 (IGROV-1) | GI50 (K562) | GI50 (KM12) | GI50 (LOX IMVI) | GI50 (Malme-3M) | GI50 (NCI-H226) | GI50 (OVCAR-4) | GI50 (OVCAR-5) | GI50 (OVCAR-8) | GI50 (SF-295) | GI50 (SK-MEL-2) | GI50 (TK-10) | GI50 (U-251) | GI50 (UACC-257) | GI50 (KM-20L2)
1 | O=C(N/N=C/c1ccc2c(c1)CCC2)c1ccccc1O | 15.7 µM (inactive) | 8.71 µM (inactive) | 53.7 µM (inactive) | 48 µM (inactive) | 17 µM (inactive) | 17.8 µM (inactive) | 38.9 µM (inactive) | 20.9 µM (inactive) | 27.8 µM (inactive) | 21.4 µM (inactive) | 32.1 µM (inactive) | 24.8 µM (inactive) | 32.5 µM (inactive) | 25.4 µM (inactive) | 16.4 µM (inactive) | 23.4 µM (inactive) | 23 µM (inactive) | 17.7 µM (inactive) | 28.6 µM (inactive) | –
2 | Cc1cc(N)c2ccccc2[n+]1CCCCCCCCCC[n+]1c(C)cc(N)c2ccccc21 [DEQUALINIUM CHLORIDE] | 5.19 µM (inactive) | 2.11 µM (inactive) | 1.33 µM (inactive) | 2.74 µM (inactive) | 1.87 µM (inactive) | 1.72 µM (inactive) | 0.379 µM (active) | 0.69 µM (active) | 1.11 µM (active) | 3.05 µM (inactive) | 3.37 µM (inactive) | 2.43 µM (inactive) | 2.34 µM (inactive) | 1.9 µM (inactive) | 1.28 µM (inactive) | 1.89 µM (inactive) | 4.09 µM (inactive) | 0.258 µM (active) | 2.91 µM (inactive) | –
3 | O=[N+]([O-])c1cc(-c2nc(-c3ccccc3)c(-c3ccccc3)[nH]2)c(O)c([N+](=O)[O-])c1 | 20.8 µM (inactive) | 25.9 µM (inactive) | 21.8 µM (inactive) | 21.9 µM (inactive) | 20.4 µM (inactive) | 32.7 µM (inactive) | 30.8 µM (inactive) | 24.9 µM (inactive) | 23.6 µM (inactive) | 21.1 µM (inactive) | 20.1 µM (inactive) | 34 µM (inactive) | 23.2 µM (inactive) | 34 µM (inactive) | 22.3 µM (inactive) | 19.9 µM (inactive) | 28.5 µM (inactive) | 14.8 µM (inactive) | 24.2 µM (inactive) | –
4 | O=[N+]([O-])c1ccc2ncccc2c1CCc1c([N+](=O)[O-])ccc2ncccc12 | > 100 µM (inactive) | > 100 µM (inactive) | > 100 µM (inactive) | > 100 µM (inactive) | > 100 µM (inactive) | > 100 µM (inactive) | > 100 µM (inactive) | > 100 µM (inactive) | > 100 µM (inactive) | > 100 µM (inactive) | > 100 µM (inactive) | > 100 µM (inactive) | > 100 µM (inactive) | > 100 µM (inactive) | > 100 µM (inactive) | > 100 µM (inactive) | > 100 µM (inactive) | > 100 µM (inactive) | > 100 µM (inactive) | –
5 | CC(=O)N1c2ccccc2C(C)C1c1[nH]c2ccccc2c1C (stereo unspecified) | 22.7 µM (inactive) | 25.6 µM (inactive) | 13.5 µM (inactive) | 28.3 µM (inactive) | 19.2 µM (inactive) | 24.1 µM (inactive) | 19.5 µM (inactive) | 16.1 µM (inactive) | 26.1 µM (inactive) | 39.7 µM (inactive) | 25.3 µM (inactive) | 23.4 µM (inactive) | 14.9 µM (inactive) | 20.8 µM (inactive) | 15 µM (inactive) | 17.7 µM (inactive) | 22.8 µM (inactive) | 20.5 µM (inactive) | 18.1 µM (inactive) | –
6 | COc1c(C)cc2c(C(C)C)c(O)c(O)c(C=O)c2c1O | – | 18.4 µM (inactive) | 16.4 µM (inactive) | – | – | 30.5 µM (inactive) | 17.2 µM (inactive) | 18.3 µM (inactive) | 24 µM (inactive) | 16.2 µM (inactive) | 18.2 µM (inactive) | 17.2 µM (inactive) | 28.9 µM (inactive) | 27.4 µM (inactive) | 28.8 µM (inactive) | 15.8 µM (inactive) | 37 µM (inactive) | 18 µM (inactive) | 21.4 µM (inactive) | 19.7 µM (inactive)
7 | O=C1c2cccc3cccc(c23)C(=O)N1CCCNCCCCNCCCNCCCN1C(=O)c2cccc3cccc(c23)C1=O [BISNAPHTHALIMIDOPROPYL SPERMIDINE TRIHYDROBROMIDE] | 0.977 µM (active) | 0.111 µM (active) | 0.348 µM (active) | 0.371 µM (active) | 1.1 µM (active) | 0.472 µM (active) | 0.557 µM (active) | 0.556 µM (active) | 0.316 µM (active) | 0.513 µM (active) | 0.505 µM (active) | 0.431 µM (active) | 0.585 µM (active) | 0.748 µM (active) | 5.92 µM (inactive) | 1.22 µM (inactive) | 2.55 µM (inactive) | 0.338 µM (active) | 1.56 µM (inactive) | –
